target: not listed separately; assay: Inhibition of yeast alpha-glucosidase using p-nitrophenyl-alpha-d-glucopyranoside as substrate preincubated for 15 mins followed by substrate addition measured after 30 mins; parameters: species or system Saccharomyces cerevisiae

| Structure (SMILES) | IC50 [µM] |
| --- | --- |
| c1cncc(Cn2cc(Cn3c4ccccc4c4ccccc43)nn2)c1 | 0.8 |
| O=C(c1ccc(O)cc1)C1Cc2c(ccc3ccccc23)O1 (centres undefined) | 6.5 |
| Cc1n[nH]c2c1C(c1ccc(Cl)cc1Cl)C(C#N)=C(N)O2 (centres undefined) | 60 to 180 |
| COc1cc(C2C(C#N)=C(N)Oc3n[nH]c(C)c32)ccc1OCc1ccccc1 (centres undefined) | 60 to 180 |
| c1ccc2c(c1)c1ccccc1n2Cc1cn(Cc2ccc(-c3ccc(Cn4cc(Cn5c6ccccc6c6ccccc65)nn4)cc3)cc2)nn1 | 73 |
| O=C(CC(c1ccc(Br)cc1)C(C(=O)Nc1ccccn1)C(=O)Nc1ccccn1)c1ccccc1 (centres undefined) | 12 |
| O=C(Cn1cc(Cn2c3ccccc3c3ccccc32)nn1)c1ccc(O)c(Br)c1 | 0.61 to 1 |
| Cc1n[nH]c2c1C(c1ccc([N+](=O)[O-])cc1)C(C#N)=C(N)O2 (centres undefined) | 54 |
| c1ccc2c(c1)c1ccccc1n2Cc1cn(Cc2ccc(Cn3cc(Cn4c5ccccc5c5ccccc54)nn3)cc2)nn1 | 3.6 |
| Cc1ccc(C(CC(=O)c2ccccc2)C(C(=O)Nc2ccccn2)C(=O)Nc2ccccn2)cc1 (centres undefined) | 28 |
| Cc1[nH]nc2c1C(c1ccccc1OCc1ccccc1)C(C#N)=C(N)O2 (centres undefined) | 60 to 180 |
| C[C@H]1O[C@H](O[C@H]2[C@H](O)[C@@H](O)[C@@H](O[C@H]3[C@H](O)[C@@H](O)C(O)O[C@@H]3CO)O[C@@H]2CO)[C@H](O)[C@@H](O)[C@@H]1N[C@H]1C=C(CO)[C@@H](O)[C@H](O)[C@H]1O (some centres undefined) [ACARBOSE] | 937 |
| Cc1[nH]nc2c1C(c1ccc(O)c(OCc3ccccc3)c1)C(C#N)=C(N)O2 (centres undefined) | 60 to 180 |
| Cc1ncc([N+](=O)[O-])n1Cn1cc(Cn2c3ccccc3c3ccccc32)nn1 | 6.8 |

target: not listed separately; assay: Inhibition of yeast alpha-glucosidase using p-nitrophenyl-alpha-d-glucopyranoside as substrate preincubated with enzyme followed by substrate addition measured after 30 mins; parameters: species or system Saccharomyces cerevisiae

| Structure (SMILES) | IC50 [µM] |
| --- | --- |
| CC1=NN(c2ccccc2)C(=O)/C1=C/c1cn(-c2ccccc2)nc1-c1cc2ccccc2oc1=O | 2.1 to 289 |
| CC1=NN(c2ccccc2)C(=O)/C1=C/c1cn(-c2ccccc2)nc1-c1ccc(-c2ccccc2)cc1 | 2.1 to 289 |
| CC1=NN(c2ccc([N+](=O)[O-])cc2)C(=O)/C1=C/c1cn(-c2ccccc2)nc1-c1ccc(-c2ccccc2)cc1 | 2.1 to 289 |
| CC1=NN(c2ccccc2)C(=O)/C1=C/c1cn(-c2ccccc2)nc1-c1cc2cc(Br)ccc2oc1=O | 2.1 to 289 |
| CC1=NN(c2ccc(C)cc2)C(=O)/C1=C/c1cn(-c2ccccc2)nc1-c1cc2ccccc2oc1=O | 2.1 to 289 |
| O=C1/C(=C/c2cn(-c3ccccc3)nc2-c2cc3cc(Br)ccc3oc2=O)C(c2ccccc2)=NN1c1ccccc1 | 2.1 to 289 |
| CC1=NN(c2ccc(C)cc2)C(=O)/C1=C/c1cn(-c2ccccc2)nc1-c1ccc(-c2ccccc2)cc1 | 2.1 to 289 |
| CC1=NN(c2ccc([N+](=O)[O-])cc2)C(=O)/C1=C/c1cn(-c2ccccc2)nc1-c1cc2cc(Br)ccc2oc1=O | 2.1 |
| CC1=NN(c2ccc([N+](=O)[O-])cc2)C(=O)/C1=C/c1cn(-c2ccccc2)nc1-c1cc2ccccc2oc1=O | 2.1 to 289 |
| O=C1/C(=C/c2cn(-c3ccccc3)nc2-c2cc3ccccc3oc2=O)C(c2ccccc2)=NN1c1ccccc1 | 2.1 to 289 |
| CC1=NN(c2ccc(C)cc2)C(=O)/C1=C/c1cn(-c2ccccc2)nc1-c1cc2cc(Br)ccc2oc1=O | 2.1 to 289 |

target: not listed separately; assay: Inhibition of yeast alpha-glucosidase using p-nitrophenyl-alpha-d-glucopyranoside as substrate preincubated for 15 mins followed by substrate addition measured after 20 mins; parameters: species or system Saccharomyces cerevisiae

| Structure (SMILES) | IC50 [µM] |
| --- | --- |
| Clc1ccc(-c2nc3ccc(N4CCOCC4)cc3[nH]2)cc1 | 3.4 to 20 |
| CN1CCN(c2ccc3nc(-c4ccc(O)c(O)c4)[nH]c3c2)CC1 | 2.2 to 21 |
| c1ccc(-c2nc3ccc(N4CCOCC4)cc3[nH]2)nc1 | 3.4 to 20 |
| Oc1ccc(-c2nc3ccc(N4CCOCC4)cc3[nH]2)cc1O | 3.4 to 20 |
| CN1CCN(c2ccc3[nH]c(-c4ccc(O)cc4)nc3c2)CC1 | 2.2 |
| Fc1ccc(-c2nc3ccc(N4CCOCC4)cc3[nH]2)cc1Br | 3.4 to 20 |
| COc1cc(-c2nc3ccc(N4CCOCC4)cc3[nH]2)ccc1O | 3.4 to 20 |

target: T1, Alpha glucosidase (Homo sapiens, UniProt O43451+P10253+P14410+Q2M2H8); assay: Inhibition of alpha-glucosidase (unknown origin) using pNPG as substrate preincubated for 15 mins followed by substrate addition; format: protein assay

| Structure (SMILES) | IC50 [µM] |
| --- | --- |
| Cc1cccc2nc(-c3ccccc3Cl)[nH]c12 | 5.3 |

system: not listed separately; assay: Inhibition of urease (unknown origin) assessed as reduction in ammonia production using urea as substrate after 15 mins by indophenol method

| Structure (SMILES) | IC50 [µM] |
| --- | --- |
| Oc1ccc(-c2nc3ccc(Br)cc3[nH]2)cc1 | 8.3 |

target: not listed separately; assay: Inhibition of yeast alpha-glucosidase; parameters: species or system Saccharomyces cerevisiae

| Structure (SMILES) | IC50 [µM] |
| --- | --- |
| COc1ccc(/C=C/C(=O)C2=C(/C=C/c3ccc(OC)c(O)c3)Oc3[nH]c(=O)[nH]c(=O)c3C2c2ccc(Cl)cc2)cc1O (centres undefined) | 97 to 119 |
| COc1ccc(/C=C/C(=O)C2=C(/C=C/c3ccc(OC)c(O)c3)Oc3[nH]c(=O)[nH]c(=O)c3C2c2cc3ccccc3[nH]2)cc1O (centres undefined) | 97 to 119 |
| COc1ccc(/C=C/C(=O)C2=C(/C=C/c3ccc(OC)c(O)c3)Oc3[nH]c(=O)[nH]c(=O)c3C2c2ccccc2)cc1O (centres undefined) | 97 to 119 |
| COc1ccc(/C=C/C(=O)C2=C(/C=C/c3ccc(OC)c(O)c3)Oc3[nH]c(=O)[nH]c(=O)c3C2c2cccc([N+](=O)[O-])c2)cc1O (centres undefined) | 97 to 119 |

target: not listed separately; assay: Inhibition of mouse alpha-glucosidase

| Structure (SMILES) | IC50 [µM] |
| --- | --- |
| COc1ccc(/C=C/C(=O)C2=C(/C=C/c3ccc(OC)c(O)c3)Oc3[nH]c(=O)[nH]c(=O)c3C2c2ccc(Cl)cc2)cc1O (centres undefined) | 98 to 413 |
| COc1ccc(/C=C/C(=O)C2=C(/C=C/c3ccc(OC)c(O)c3)Oc3[nH]c(=O)[nH]c(=O)c3C2c2cc3ccccc3[nH]2)cc1O (centres undefined) | 98 to 413 |
| COc1ccc(/C=C/C(=O)C2=C(/C=C/c3ccc(OC)c(O)c3)Oc3[nH]c(=O)[nH]c(=O)c3C2c2ccccc2)cc1O (centres undefined) | 98 to 413 |
| COc1ccc(/C=C/C(=O)C2=C(/C=C/c3ccc(OC)c(O)c3)Oc3[nH]c(=O)[nH]c(=O)c3C2c2cccc([N+](=O)[O-])c2)cc1O (centres undefined) | 98 to 413 |

target: T1, Alpha glucosidase; assay: Inhibition of alpha-glucosidase (unknown origin) using p-nitrophenyl-alpha-d-glucopyranoside as substrate preincubated for 30 mins followed by substrate addition measured for 60 secs by spectrophotometric analysis; format: protein assay

| Structure (SMILES) | IC50 [µM] |
| --- | --- |
| Oc1ccc(Br)cc1-c1nc2cc(Cl)ccc2s1 | 22 |
| C(=N\Nc1nc(-c2ccc(-c3ccccc3)cc2)cs1)/c1cccc2ccccc12 | 6.2 |

target: not listed separately; assay: Inhibition of yeast alpha-glucosidase using p-nitrophenyl-alpha-d-glucopyranoside as substrate preincubated with enzyme followed by substrate addition measured after 30 mins by spectrophotometric analysis; parameters: species or system Saccharomyces cerevisiae

| Structure (SMILES) | IC50 [µM] |
| --- | --- |
| O=C(CCCSc1nc2ccccc2s1)Nc1cccc2ccccc12 | 10 |

target: T1, Alpha glucosidase; assay: Inhibition of alpha-glucosidase (unknown origin) using p-nitrophenyl-alpha-d-glucopyranoside as substrate preincubated for 30 mins followed by substrate addition measured after 60 mins; format: protein assay

| Structure (SMILES) | IC50 [µM] |
| --- | --- |
| Clc1ccc(/N=c2\scc(-c3ccc(Cl)cc3)n2Nc2ccccc2)cc1 | 9.6 |

target: T1, Alpha glucosidase; assay: Inhibition of alpha-glucosidase (unknown origin) using p-nitrophenyl-alpha-d-glucopyranoside as substrate preincubated for 5 mins followed by substrate addition measured after 30 mins; format: protein assay

| Structure (SMILES) | IC50 [µM] |
| --- | --- |
| Cc1ccccc1C(=O)/N=c1\scc(C)n1-c1cc(Cl)c(Cl)cc1Cl | 0.15 |
| Cc1cs/c(=N\C(=O)c2cccc3ccccc23)n1-c1cc(Cl)c(Cl)cc1Cl | 0.15 |

target: T1, Alpha glucosidase; assay: Potency index, ratio of acarbose IC50 to compound IC50 for inhibition of alpha-glucosidase (unknown origin) using p-nitrophenyl-alpha-d-glucopyranoside as substrate preincubated for 5 mins followed by substrate addition measured after 30 mins; format: protein assay

| Structure (SMILES) | Ratio IC50 |
| --- | --- |
| Cc1ccccc1C(=O)/N=c1\scc(C)n1-c1cc(Cl)c(Cl)cc1Cl | 255 |
| Cc1cs/c(=N\C(=O)c2cccc3ccccc23)n1-c1cc(Cl)c(Cl)cc1Cl | 255 |

target: T1, Alpha glucosidase; assay: Inhibition of alpha-glucosidase (unknown origin) using p-nitro phenyl glucopyranoside as substrate preincubated for 10 mins followed by substrate addition measured after 10 mins; format: protein assay

| Structure (SMILES) | IC50 [µM] |
| --- | --- |
| O=C(O)CN1C(=O)S/C(=C/c2ccc(-n3ccc4c(Br)ccnc43)cc2)C1=O | 0.55 to 35 |
| O=C1NC(=O)/C(=C\c2ccc(-n3ccc4c(Nc5ccccc5OC(F)(F)F)ccnc43)cc2)S1 | 0.55 to 35 |
| O=C1NC(=O)/C(=C\c2ccc(-n3ncc4ccccc43)cc2)S1 | 0.55 to 35 |
| O=C1NC(=O)/C(=C\c2ccc(-n3cnc4ccccc43)cc2)S1 | 0.55 to 35 |
| O=C1NC(=O)/C(=C\c2ccc(-n3ccc4c(Br)ccnc43)cc2)S1 | 0.55 to 35 |
| O=C1NC(=O)/C(=C\c2ccc(-n3ccc4c(Nc5ccc(F)cc5)ccnc43)cc2)S1 | 0.55 to 35 |
| Cc1nccn1-c1ccc(/C=C2/SC(=O)NC2=O)cc1 | 0.55 to 35 |
| O=C1NC(=O)/C(=C\c2ccc(-n3cc([N+](=O)[O-])cn3)cc2)S1 | 0.55 to 35 |

target: T1, Alpha glucosidase; assay: Inhibition of alpha-glucosidase (unknown origin) using p-nitro phenyl glucopyranoside as substrate preincubated for 5 mins followed by substrate addition measured after 30 mins; format: protein assay

| Structure (SMILES) | IC50 [µM] |
| --- | --- |
| O=c1oc2ccccc2cc1-c1nn(C(Nc2ccc(Oc3ccc(NC(c4cccc(Br)c4)n4nc(-c5cc6ccccc6oc5=O)oc4=S)cc3)cc2)c2cccc(Br)c2)c(=S)o1 (centres undefined) | 0.07 |

target: not listed separately; assay: Inhibition of rat intestinal maltase-glucoamylase using p-nitrophenyl alpha-D-glucoside as substrate preincubated for 5 mins followed by substrate addition and measured after 30 mins

| Structure (SMILES) | IC50 [µM] |
| --- | --- |
| O=c1oc2ccccc2cc1-c1nn(C(Nc2ccc(Oc3ccc(NC(c4cccc(Br)c4)n4nc(-c5cc6ccccc6oc5=O)oc4=S)cc3)cc2)c2cccc(Br)c2)c(=S)o1 (centres undefined) | 0.04 |

target: T1, Alpha glucosidase; assay: Inhibition of alpha-glucosidase (unknown origin) using p-nitrophenyl-alpha-d-glucopyranoside as substrate preincubated for 10 mins followed by substrate addition measured after 20 mins; format: protein assay

| Structure (SMILES) | IC50 [µM] |
| --- | --- |
| Nc1c(C(c2ccc([N+](=O)[O-])cc2)c2c(N)c3ccccc3oc2=O)c(=O)oc2ccccc12 | 20 to 180 |
| Nc1c(C(c2cccc(Br)c2)c2c(N)c3ccccc3oc2=O)c(=O)oc2ccccc12 | 20 to 180 |
| Nc1c(C(c2ccccc2Cl)c2c(N)c3ccccc3oc2=O)c(=O)oc2ccccc12 | 20 to 180 |
| Nc1c(C(c2ccccc2F)c2c(N)c3ccccc3oc2=O)c(=O)oc2ccccc12 | 20 to 180 |
| Cc1cccc(C(c2c(N)c3ccccc3oc2=O)c2c(N)c3ccccc3oc2=O)c1 | 20 to 180 |
| COc1cc(C(c2c(N)c3ccccc3oc2=O)c2c(N)c3ccccc3oc2=O)cc(Cl)c1O | 20 to 180 |
| Nc1c(C(c2ccc(O)cc2)c2c(N)c3ccccc3oc2=O)c(=O)oc2ccccc12 | 20 to 180 |
| Nc1c(C(c2cccc(F)c2)c2c(N)c3ccccc3oc2=O)c(=O)oc2ccccc12 | 20 to 180 |
| Nc1c(C(c2ccccc2)c2c(N)c3ccccc3oc2=O)c(=O)oc2ccccc12 | 20 to 180 |
| Nc1c(C(c2cccc(Cl)c2)c2c(N)c3ccccc3oc2=O)c(=O)oc2ccccc12 | 20 to 180 |
| Cc1ccc(C(c2c(N)c3ccccc3oc2=O)c2c(N)c3ccccc3oc2=O)cc1 | 20 |
| COc1cc(C(c2c(N)c3ccccc3oc2=O)c2c(N)c3ccccc3oc2=O)cc(Br)c1O | 20 to 180 |
| COc1cccc(C(c2c(N)c3ccccc3oc2=O)c2c(N)c3ccccc3oc2=O)c1 | 20 to 180 |

target: T1, Alpha glucosidase; assay: Competitive inhibition of alpha-glucosidase (unknown origin) using p-nitrophenyl-alpha-d-glucopyranoside as substrate preincubated for 10 mins followed by substrate addition measured after 20 mins; format: protein assay

| Structure (SMILES) | Ki [µM] |
| --- | --- |
| Cc1ccc(C(c2c(N)c3ccccc3oc2=O)c2c(N)c3ccccc3oc2=O)cc1 | 22 |

From ChEMBL document CHEMBL4304757, “Synthetic heterocyclic candidates as promising α-glucosidase inhibitors: An overview” (Eur J Med Chem, 2019)
